Legend:
Test in all cases: relative viability (nuclei count vs DMSO), 5 days (fraction); higher = more cells survive
[1] = compound: COc1cc2c(Oc3ccc4[nH]c(C)cc4c3F)ncnc2cc1OCCCN1CCCC1 [Cediranib] + CCNC(=O)c1noc(-c2cc(C(C)C)c(O)cc2O)c1-c1ccc(CN2CCOCC2)cc1 [Luminespib] (partner 0.01 µM)
Summary of the method: (§1)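 A single step with final 0.05% Triton X-100, 1% formaldehyde and 1 ug/ml Hoechst fixed the cells and stained nuclei 5 days after treatment. Lung cancer cell lines in 1536-well plates had been treated by pin tool the day after seeding with one drug alone or a fixed anchor-drug dose plus five library-drug doses (not always all listed) in √10 steps, and nuclei were counted on 4× images. Relative viability is the ratio of nuclei in treated wells to nuclei in vehicle wells, taken as the median of duplicate plates.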

[2] = compound: O=C(C[C@H]1NCCC[C@@H]1O)Cn1cnc2cc(Br)c(Cl)cc2c1=O (racemic) [Halofuginone] + NC(=O)Nc1cc(-c2cccc(F)c2)sc1C(=O)N[C@H]1CCCNC1 [AZD7762] (partner 0.2 µM)
Summary of the method: as §1

[3] = compound: COc1cc2c(Oc3ccc4[nH]c(C)cc4c3F)ncnc2cc1OCCCN1CCCC1 [Cediranib] + CS(=O)(=O)N1CCN(Cc2cc3nc(-c4cccc5[nH]ncc45)nc(N4CCOCC4)c3s2)CC1 [Pictilisib] (partner 1 µM)
Summary of the method: as §1

[4] = compound: O=C(C[C@H]1NCCC[C@@H]1O)Cn1cnc2cc(Br)c(Cl)cc2c1=O (racemic) [Halofuginone] + CC(=O)Nc1cccc(-n2c(=O)n(C3CC3)c(=O)c3c(Nc4ccc(I)cc4F)n(C)c(=O)c(C)c32)c1 [Trametinib] (partner 0.02 µM)
Summary of the method: as §1

Row | Cell Line | relative viability ([1]; first compound 0.4 µM) | relative viability ([1]; first compound 1.265 µM) | relative viability ([1]; first compound 4 µM) | relative viability ([2]; first compound 0.001 µM) | relative viability ([2]; first compound 0.003162 µM) | relative viability ([2]; first compound 0.01 µM) | relative viability ([2]; first compound 0.03162 µM) | relative viability ([2]; first compound 0.1 µM) | relative viability ([3]; first compound 0.04 µM) | relative viability ([3]; first compound 0.1265 µM) | relative viability ([3]; first compound 0.4 µM) | relative viability ([3]; first compound 1.265 µM) | relative viability ([3]; first compound 4 µM) | relative viability ([4]; first compound 0.001 µM) | relative viability ([4]; first compound 0.003162 µM) | relative viability ([4]; first compound 0.01 µM) | relative viability ([4]; first compound 0.03162 µM) | relative viability ([4]; first compound 0.1 µM) | relative viability ([1]; first compound 0.04 µM) | relative viability ([1]; first compound 0.1265 µM)
1 | NCI-H727 | 0.511 | 0.463 | 0.395 | 0.777 | 0.551 | 0.72 | 0.677 | 0.634 | 0.515 | 0.169 | 0.289 | 0.325 | 0.3 | 0.44 | 0.362 | 0.403 | 0.406 | 0.422 |  | 
2 | NCI-H358 | 0.381 | 0.328 | 0.364 | 0.496 | 0.492 | 0.447 | 0.246 | 0.149 | 0.323 | 0.462 | 0.314 | 0.271 | 0.404 | 0.158 | 0.138 | 0.12 | 0.119 | 0.0998 | 0.257 | 0.426
3 | NCI-H1437 | 1.04 | 1.1 | 1.13 | 1.11 | 1.08 | 1.07 | 1.17 | 1.11 | 0.484 | 0.413 | 0.442 | 0.228 | 0.499 | 0.548 | 0.553 | 0.558 | 0.481 | 0.387 | 1.15 | 1.05
4 | NCI-H441 | 0.273 | 0.341 | 0.279 | 1.13 | 1.35 | 1.18 | 1.3 | 0.599 | 0.492 | 0.474 | 0.45 | 0.378 | 0.426 | 0.48 | 0.428 | 0.493 | 0.471 | 0.233 | 0.471 | 
5 | EMC-BAC-2 | 1.13 | 1.18 | 1.16 | 1.17 | 1.2 | 1.06 | 1.12 | 0.842 | 0.568 | 0.54 | 0.538 | 0.443 | 0.555 | 1.02 | 0.913 | 0.83 | 0.85 | 0.321 | 1.15 | 1.3
6 | NCI-H647 | 0.174 | 0.157 | 0.212 | 0.489 | 0.451 | 0.52 | 0.388 | 0.416 | 0.429 |  | 0.392 | 0.324 | 0.385 | 0.499 | 0.574 | 0.421 | 0.336 | 0.292 | 0.13 | 0.308
7 | CAL-12T | 0.364 | 0.359 | 0.361 | 0.642 | 0.688 | 0.584 | 0.695 | 0.695 | 0.431 |  | 0.438 | 0.319 | 0.501 | 0.352 | 0.414 | 0.359 | 0.329 | 0.196 | 0.242 | 0.369
8 | NCI-H1792 | 0.479 | 0.538 | 0.508 | 0.684 | 0.722 | 0.585 | 0.541 | 0.234 | 0.305 | 0.33 | 0.3 | 0.312 | 0.291 | 0.402 | 0.469 | 0.51 | 0.522 | 0.18 | 0.429 | 0.644
9 | H3255 | 0.879 | 0.709 | 0.992 | 1.05 | 0.777 | 0.871 | 0.844 | 0.876 | 0.533 | 0.525 | 0.409 | 0.494 | 0.446 | 0.746 | 0.73 | 0.543 | 0.716 | 0.517 | 0.83 | 
10 | HCC-78 |  |  |  | 0.657 | 0.672 | 0.55 | 0.652 | 0.643 | 0.24 | 0.204 | 0.21 | 0.174 | 0.187 | 0.775 | 0.718 | 0.709 | 0.766 | 0.503 |  | 
11 | EBC-1 |  |  |  |  |  |  |  |  | 0.417 | 0.516 | 0.402 | 0.407 | 0.467 |  |  |  |  |  |  | 
12 | NCI-H2405 | 0.649 | 0.657 | 0.532 | 0.79 | 0.881 | 0.674 | 0.678 | 0.541 | 0.457 | 0.708 | 0.416 | 0.305 | 0.415 | 0.696 | 0.69 | 0.678 | 0.599 | 0.502 | 0.897 | 0.712
13 | A549 |  |  |  |  |  |  |  |  | 0.538 | 0.628 | 0.485 | 0.477 | 0.532 |  |  |  |  |  |  | 
14 | NCI-H3122 | 0.0816 | 0.0839 | 0.12 | 0.937 | 1.09 | 0.985 | 0.94 | 0.922 | 0.669 | 0.674 | 0.585 | 0.55 | 0.588 | 0.192 | 0.241 | 0.258 | 0.219 | 0.25 | 0.0861 | 0.09
15 | NCI-H1563 | 0.541 | 0.559 | 0.601 |  |  |  |  |  | 0.727 | 0.576 | 0.711 | 0.66 | 0.595 |  |  |  |  |  | 0.513 | 0.456
16 | HCC-44 | 0.986 | 1.07 | 0.843 | 1.06 | 1.01 | 1.02 | 1.03 | 1.05 | 0.589 |  | 0.552 | 0.669 | 0.714 | 1.04 | 1.1 | 1.05 | 1.13 | 0.966 |  | 
17 | PC-3 [JPC-3] | 0.665 | 0.735 | 0.449 | 0.881 | 0.933 | 0.669 | 0.783 | 0.499 | 0.659 | 0.905 | 0.708 | 0.671 | 0.768 | 0.722 | 0.741 | 0.664 | 0.648 | 0.538 | 0.649 | 0.654
18 | NCI-H1993 | 0.906 | 0.851 | 0.597 | 0.733 | 0.421 | 0.787 | 1.11 | 0.586 | 0.883 | 0.806 | 0.719 | 0.805 | 0.809 | 0.502 | 0.505 | 0.597 | 0.505 | 0.485 | 0.637 | 0.901

Source: the supplement of paper PMC10307832
